Experimental data: PubChem BioAssay (NCI)
Values joined by “and” are separate entries in the source; they are usually repeats but may differ in a detail not shown here. Equal values may be shown once.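 Cultured in 96-well plates, cells were exposed to test compound for 48 hours across five concentrations. GI50: concentration for 50% inhibition of growth. TGI: concentration producing complete growth inhibition.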

Experiments:
Assay in all cases: DTP human tumour cell line panel, 48 h
[1] = system: UACC-257 melanoma
[2] = system: 786-0 renal
[3] = system: HCC-2998 colon
[4] = system: HCT-15 colon
[5] = system: MDA-N
[6] = system: HOP-62 NSCLC
[7] = system: HCT-116 colon
[8] = system: MDA-MB-435
[9] = system: MDA-MB-231 breast
[10] = system: SR leukemia

Row | Compound | TGI [1] | TGI [2] | TGI [3] [µM] | TGI [4] | GI50 [5] [µM] | TGI [5] | TGI [6] | GI50 [7] [µM] | TGI [7] | GI50 [8] [µM] | TGI [8] | GI50 [9] | TGI [9] | TGI [10] [µM]
1 | c1ccc(CNC2CC(NCc3ccccn3)CC(NCc3ccccn3)C2)nc1 (stereo not given) | 21.4 µM and 9.81 µM | 9.95 µM and 5.87 µM and 6.09 µM | 3.72 | > 75.2 µM and 25 µM and > 100 µM | 2.22 | 12.5 µM and 11.3 µM and 4.78 µM | 20.8 µM and 20.4 µM and 23 µM | 1.86 | 5.27 µM and 7.2 µM and 3.68 µM | 3.84 | 9.45 µM and 8.78 µM and 15.5 µM | 2.13 µM and 5.66 µM and 2.08 µM | 5.21 µM and 12.5 µM and 4.56 µM | 
2 | CC(=O)NC1C(OCc2ccccc2)OC(CO)C(O)C1OCC(=O)NC(C)C(=O)NC(CCC(=O)NCCCCNc1ccc([N+](=O)[O-])c2[nH]c3ccccc3c(=O)c12)C(N)=O (stereo not given) |  | > 100 µM | > 100 | > 100 µM |  | > 100 µM | > 100 µM |  | > 100 µM |  | > 100 µM |  | > 100 µM | > 100
3 | CC(C)(C)OC(=O)CN1CCNCCNCC1 | > 100 µM | > 100 µM |  | > 100 µM |  | > 100 µM | > 100 µM |  | > 100 µM |  | > 100 µM |  | > 100 µM | > 100
4 | CCC(C)[C@@H](NCc1ccccc1)[C@H](OCc1ccccc1)[C@@H]1COC(C)(C)O1 (stereo not given in full) | 38.1 µM | 46.3 µM |  | 31.6 µM |  | > 100 µM | > 100 µM |  | 29.2 µM |  | > 100 µM |  | 40.4 µM | 60.5
5 | Cc1nc2c(=S)[nH]ncc2[nH]1 | > 100 µM | > 100 µM | > 100 | > 100 µM |  | > 100 µM | > 100 µM |  | > 100 µM |  | > 100 µM |  | > 100 µM | 
6 | O=c1cnn(C/C=C\CO)c(=O)[nH]1 | > 100 µM |  | > 100 | > 100 µM |  | > 100 µM | > 100 µM |  |  |  | > 100 µM |  | > 100 µM | > 100
7 | COC(=O)c1cn(CCCC(=O)O)nn1 | > 100 µM | > 100 µM | > 100 | > 100 µM |  | > 100 µM | > 100 µM |  | > 100 µM |  | > 100 µM |  | > 100 µM | 
8 | O=C1C=CC2CCC1C2 (stereo not given) | > 100 µM | > 100 µM | 89.9 | > 100 µM |  | > 100 µM | > 100 µM |  | > 100 µM |  | 61.5 µM |  | > 100 µM | 
9 | Cc1ccc(S(=O)(=O)c2scc(-c3ccccc3)c2C)cc1 | > 100 µM | > 100 µM | > 100 | > 100 µM |  | > 100 µM | > 100 µM |  | > 100 µM |  | > 100 µM |  | > 100 µM | 
10 | COC(=O)[C@H](Cc1ccccc1)NC(=O)c1ccc(CNC(=O)/C=C/c2ccc(-c3ccccc3)cc2)cc1 | > 100 µM | > 100 µM | > 100 | > 100 µM |  | > 100 µM | 45.4 µM |  | > 100 µM |  | > 100 µM |  | 76.7 µM | 
11 | COc1ccc(-c2nc(N)c(C#N)c3c2CCS(=O)(=O)c2ccc(C)cc2-3)cc1OC | > 100 µM | > 100 µM | > 100 | > 100 µM |  | 51 µM | > 100 µM |  | > 100 µM |  | 91.6 µM |  | > 100 µM | 
12 | c1ccc(C2=NC3(CCCCC3)N(c3nc4ccccc4s3)N2)nc1 | 43.4 µM | 42.2 µM |  | > 100 µM |  | 86.5 µM | > 100 µM |  | > 100 µM |  | 63.6 µM |  | 64.7 µM | 26.8
13 | COC(=O)N1CC2(CO)C3CC=C(C(=O)Nc4ccccc4Br)C2C1C3Br (stereo not given) | > 50 µM | > 50 µM | > 50 | > 50 µM |  | > 50 µM | > 50 µM |  |  |  | > 50 µM |  | > 50 µM | > 50
14 | O=C1C(N2CCCC2)=CC(=O)c2c(O)c(N3CCCC3)c(Cl)c(O)c21 | > 10 µM | > 10 µM | > 10 |  |  | > 10 µM | > 10 µM |  | > 10 µM |  | > 10 µM |  | > 10 µM | > 10
15 | Nc1nc2c(=O)c3ccccc3sc2s1 | > 100 µM | > 100 µM |  | > 100 µM |  | > 100 µM | > 100 µM |  | > 100 µM |  | > 100 µM |  | > 100 µM | > 100
16 | CCOC(=O)c1cnc(-n2[nH]c(C)c(CCO)c2=O)[nH]c1=O | > 100 µM | > 100 µM | > 100 | > 100 µM |  | > 100 µM | > 100 µM |  | > 100 µM |  | > 100 µM |  | > 100 µM | 
17 | Nc1nc(N)c2ncn(CC3CCC(CO)C3)c2n1 (stereo not given) | > 100 µM | > 100 µM | > 100 | > 100 µM |  | > 100 µM | > 100 µM |  | > 100 µM |  | > 100 µM |  | > 100 µM | 
18 | CCC(C)[C@H](NC(=O)[C@H](Cc1ccccc1)NC(=O)N(CC)c1ccccc1)C(=O)N[C@@H](CC(C)C)C(=O)OC (stereo not given in full) | 74.8 µM | > 100 µM | > 100 | > 100 µM |  | > 100 µM | > 100 µM |  | > 100 µM |  | > 100 µM |  | > 100 µM | 
